Numbers after ± are expanded uncertainties.
Assay: xn = mol fraction of the nth substance listed
Settings: 101 kPa, Liquid

Molecule `OCCOCCO` [diethylene glycol] + CN(C)C=O has a kinematic viscosity (308.15 K, x2 = 0.5865) of 2.53e-06 ± 1.4e-07 m2/s, a mass density (308.15 K, x2 = 0.5865) of 1017.3 ± 2.8 kg/m3 and a kinematic viscosity (308.15 K, x2 = 0.6394) of 2.16e-06 ± 1.2e-07 m2/s. For the same molecule, the mass density (308.15 K, x2 = 0.6394) was 1007.9 ± 2.8 kg/m3, the kinematic viscosity (308.15 K, x2 = 0.6819) was 1.89e-06 ± 1.1e-07 m2/s and the mass density (308.15 K, x2 = 0.6819) was 1000.1 ± 2.8 kg/m3. The kinematic viscosity (308.15 K, x2 = 0.7294) was 1.64e-06 ± 1e-07 m2/s, the mass density (308.15 K, x2 = 0.7294) was 991.1 ± 2.8 kg/m3 and the kinematic viscosity (308.15 K, x2 = 0.7721) was 1.44e-06 ± 9e-08 m2/s. For the same molecule, the mass density (308.15 K, x2 = 0.7721) was 982.8 ± 2.7 kg/m3, the kinematic viscosity (308.15 K, x2 = 0.813) was 1.28e-06 ± 8e-08 m2/s and the mass density (308.15 K, x2 = 0.813) was 974.5 ± 2.7 kg/m3. The kinematic viscosity (308.15 K, x2 = 0.8531) was 1.14e-06 ± 7e-08 m2/s, the mass density (308.15 K, x2 = 0.8531) was 966.3 ± 2.7 kg/m3 and the kinematic viscosity (308.15 K, x2 = 0.891) was 1.03e-06 ± 6e-08 m2/s. For the same molecule, the mass density (308.15 K, x2 = 0.891) was 958.3 ± 2.7 kg/m3, the kinematic viscosity (308.15 K, x2 = 0.9288) was 9.23e-07 ± 5.8e-08 m2/s and the mass density (308.15 K, x2 = 0.9288) was 950 ± 2.6 kg/m3. It also gave a kinematic viscosity (308.15 K, x2 = 0.9648) of 8.37e-07 ± 5.3e-08 m2/s, a mass density (308.15 K, x2 = 0.9648) of 942.3 ± 2.6 kg/m3 and a kinematic viscosity (313.15 K, x2 = 0) of 1.45e-05 ± 6e-07 m2/s. It also gave a mass density (313.15 K, x2 = 0) of 1103 ± 3.2 kg/m3, a kinematic viscosity (313.15 K, x2 = 0.0714) of 1.07e-05 ± 5e-07 m2/s and a mass density (313.15 K, x2 = 0.0714) of 1093.4 ± 3.2 kg/m3. The kinematic viscosity (313.15 K, x2 = 0.1393) was 8.49e-06 ± 4.1e-07 m2/s, the mass density (313.15 K, x2 = 0.1393) was 1083.9 ± 3.1 kg/m3 and the kinematic viscosity (313.15 K, x2 = 0.2041) was 7.39e-06 ± 3.6e-07 m2/s. It also gave a mass density (313.15 K, x2 = 0.2041) of 1074.6 ± 3.1 kg/m3, a kinematic viscosity (313.15 K, x2 = 0.2683) of 6.18e-06 ± 3.2e-07 m2/s and a mass density (313.15 K, x2 = 0.2683) of 1065.1 ± 3.1 kg/m3. For the same molecule, the kinematic viscosity (313.15 K, x2 = 0.3266) was 5.2e-06 ± 2.8e-07 m2/s, the mass density (313.15 K, x2 = 0.3266) was 1056.2 ± 3.1 kg/m3 and the kinematic viscosity (313.15 K, x2 = 0.3834) was 4.4e-06 ± 2.4e-07 m2/s. The mass density (313.15 K, x2 = 0.3834) was 1047.3 ± 3 kg/m3, the kinematic viscosity (313.15 K, x2 = 0.4384) was 3.74e-06 ± 2.1e-07 m2/s and the mass density (313.15 K, x2 = 0.4384) was 1038.5 ± 3 kg/m3. For the same molecule, the kinematic viscosity (313.15 K, x2 = 0.4917) was 3.2e-06 ± 1.8e-07 m2/s, the mass density (313.15 K, x2 = 0.4917) was 1029.7 ± 3 kg/m3 and the kinematic viscosity (313.15 K, x2 = 0.5429) was 2.75e-06 ± 1.5e-07 m2/s. It also gave a mass density (313.15 K, x2 = 0.5429) of 1021 ± 3 kg/m3, a kinematic viscosity (313.15 K, x2 = 0.5865) of 2.41e-06 ± 1.4e-07 m2/s and a mass density (313.15 K, x2 = 0.5865) of 1013.4 ± 2.9 kg/m3. The kinematic viscosity (313.15 K, x2 = 0.6394) was 2.07e-06 ± 1.2e-07 m2/s, the mass density (313.15 K, x2 = 0.6394) was 1004 ± 2.9 kg/m3 and the kinematic viscosity (313.15 K, x2 = 0.6819) was 1.82e-06 ± 1.1e-07 m2/s. The mass density (313.15 K, x2 = 0.6819) was 996.2 ± 2.9 kg/m3, the kinematic viscosity (313.15 K, x2 = 0.7294) was 1.59e-06 ± 9e-08 m2/s and the mass density (313.15 K, x2 = 0.7294) was 987.1 ± 2.9 kg/m3. It also gave a kinematic viscosity (313.15 K, x2 = 0.7721) of 1.39e-06 ± 8e-08 m2/s, a mass density (313.15 K, x2 = 0.7721) of 978.6 ± 2.8 kg/m3 and a kinematic viscosity (313.15 K, x2 = 0.813) of 1.23e-06 ± 7e-08 m2/s. It also gave a mass density (313.15 K, x2 = 0.813) of 970.3 ± 2.8 kg/m3, a kinematic viscosity (313.15 K, x2 = 0.8531) of 1.1e-06 ± 7e-08 m2/s and a mass density (313.15 K, x2 = 0.8531) of 962.1 ± 2.8 kg/m3. The kinematic viscosity (313.15 K, x2 = 0.891) was 9.92e-07 ± 6.1e-08 m2/s, the mass density (313.15 K, x2 = 0.891) was 954.1 ± 2.8 kg/m3 and the kinematic viscosity (313.15 K, x2 = 0.9288) was 8.88e-07 ± 5.6e-08 m2/s. For the same molecule, the mass density (313.15 K, x2 = 0.9288) was 945.8 ± 2.7 kg/m3, the kinematic viscosity (313.15 K, x2 = 0.9648) was 8.06e-07 ± 5.1e-08 m2/s and the mass density (313.15 K, x2 = 0.9648) was 937.9 ± 2.7 kg/m3. For the same molecule, the kinematic viscosity (318.15 K, x2 = 0) was 1.12e-05 ± 5e-07 m2/s, the mass density (318.15 K, x2 = 0) was 1099.3 ± 3.3 kg/m3 and the kinematic viscosity (318.15 K, x2 = 0.0714) was 8.43e-06 ± 4e-07 m2/s. It also gave a mass density (318.15 K, x2 = 0.0714) of 1089.5 ± 3.3 kg/m3, a kinematic viscosity (318.15 K, x2 = 0.1393) of 6.68e-06 ± 3.4e-07 m2/s and a mass density (318.15 K, x2 = 0.1393) of 1079.8 ± 3.2 kg/m3. For the same molecule, the kinematic viscosity (318.15 K, x2 = 0.2041) was 5.77e-06 ± 3e-07 m2/s, the mass density (318.15 K, x2 = 0.2041) was 1070.3 ± 3.2 kg/m3 and the kinematic viscosity (318.15 K, x2 = 0.2683) was 4.88e-06 ± 2.7e-07 m2/s. For the same molecule, the mass density (318.15 K, x2 = 0.2683) was 1060.7 ± 3.2 kg/m3, the kinematic viscosity (318.15 K, x2 = 0.3266) was 4.16e-06 ± 2.3e-07 m2/s and the mass density (318.15 K, x2 = 0.3266) was 1051.7 ± 3.2 kg/m3. For the same molecule, the kinematic viscosity (318.15 K, x2 = 0.3834) was 3.54e-06 ± 2e-07 m2/s, the mass density (318.15 K, x2 = 0.3834) was 1042.7 ± 3.1 kg/m3 and the kinematic viscosity (318.15 K, x2 = 0.4384) was 3.06e-06 ± 1.7e-07 m2/s. For the same molecule, the mass density (318.15 K, x2 = 0.4384) was 1033.9 ± 3.1 kg/m3, the kinematic viscosity (318.15 K, x2 = 0.4917) was 2.64e-06 ± 1.5e-07 m2/s and the mass density (318.15 K, x2 = 0.4917) was 1024.9 ± 3.1 kg/m3. For the same molecule, the kinematic viscosity (318.15 K, x2 = 0.5429) was 2.29e-06 ± 1.3e-07 m2/s, the mass density (318.15 K, x2 = 0.5429) was 1016.2 ± 3.1 kg/m3 and the kinematic viscosity (318.15 K, x2 = 0.5865) was 2.03e-06 ± 1.2e-07 m2/s. For the same molecule, the mass density (318.15 K, x2 = 0.5865) was 1008.6 ± 3 kg/m3, the kinematic viscosity (318.15 K, x2 = 0.6394) was 1.76e-06 ± 1e-07 m2/s and the mass density (318.15 K, x2 = 0.6394) was 999.1 ± 3 kg/m3. It also gave a kinematic viscosity (318.15 K, x2 = 0.6819) of 1.56e-06 ± 9e-08 m2/s, a mass density (318.15 K, x2 = 0.6819) of 991.2 ± 3 kg/m3 and a kinematic viscosity (318.15 K, x2 = 0.7294) of 1.37e-06 ± 8e-08 m2/s. It also gave a mass density (318.15 K, x2 = 0.7294) of 982.1 ± 3 kg/m3, a kinematic viscosity (318.15 K, x2 = 0.7721) of 1.22e-06 ± 7e-08 m2/s and a mass density (318.15 K, x2 = 0.7721) of 973.6 ± 2.9 kg/m3. For the same molecule, the kinematic viscosity (318.15 K, x2 = 0.813) was 1.09e-06 ± 7e-08 m2/s, the mass density (318.15 K, x2 = 0.813) was 965.2 ± 2.9 kg/m3 and the kinematic viscosity (318.15 K, x2 = 0.8531) was 9.94e-07 ± 6.1e-08 m2/s. The mass density (318.15 K, x2 = 0.8531) was 956.9 ± 2.9 kg/m3, the kinematic viscosity (318.15 K, x2 = 0.891) was 8.99e-07 ± 5.6e-08 m2/s and the mass density (318.15 K, x2 = 0.891) was 948.9 ± 2.9 kg/m3. For the same molecule, the kinematic viscosity (318.15 K, x2 = 0.9288) was 8.16e-07 ± 5.2e-08 m2/s, the mass density (318.15 K, x2 = 0.9288) was 940.7 ± 2.8 kg/m3 and the kinematic viscosity (318.15 K, x2 = 0.9648) was 7.44e-07 ± 4.8e-08 m2/s. The mass density (318.15 K, x2 = 0.9648) was 932.6 ± 2.8 kg/m3.

— the NIST ThermoML archive (doi:10.1016/j.fluid.2014.04.019)
